In paper PMC9052873 (Journal of medicinal chemistry, 2020):
Like-named read-outs stand apart in the source and are kept apart here. One block for each molecule: values may come before it.

What was measured:
[1] = target: PNMT; conditions: read-out: Ki^PEA; ref [85]; cited from earlier work
[2] = target: T1, bovine PNMT (Bos taurus, UniProt P10938); test: PNMT inhibition, bovine enzyme; format: biochemical
T1 sequence (P10938 1-283): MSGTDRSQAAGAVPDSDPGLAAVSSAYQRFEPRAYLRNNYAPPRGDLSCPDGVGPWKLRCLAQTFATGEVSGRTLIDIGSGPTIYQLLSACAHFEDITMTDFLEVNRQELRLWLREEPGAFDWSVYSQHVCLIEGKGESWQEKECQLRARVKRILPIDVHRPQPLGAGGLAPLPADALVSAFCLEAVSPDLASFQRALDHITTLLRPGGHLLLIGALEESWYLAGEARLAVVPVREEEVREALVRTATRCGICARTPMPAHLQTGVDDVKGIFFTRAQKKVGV

[3] = target: T2, human PNMT (hPNMT) (Homo sapiens, UniProt P11086); test: radiochemical assay for hPNMT inhibitory potency
T2 sequence (P11086 1-282): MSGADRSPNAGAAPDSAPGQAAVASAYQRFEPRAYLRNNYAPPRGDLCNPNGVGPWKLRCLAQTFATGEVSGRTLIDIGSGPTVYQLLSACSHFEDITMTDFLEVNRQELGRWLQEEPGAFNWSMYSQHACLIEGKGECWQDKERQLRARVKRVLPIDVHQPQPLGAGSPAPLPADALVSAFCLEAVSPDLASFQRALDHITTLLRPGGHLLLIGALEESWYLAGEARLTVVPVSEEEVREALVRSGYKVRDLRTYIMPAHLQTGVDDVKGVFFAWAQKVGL

[4] = target: T1, bovine PNMT; conditions: read-out: PNMT Kis^PEA; bovine enzyme; ref [16]; cited from earlier work

Molecule: c1ccc2c(c1)CCNC2 [Compound 10, 1,2,3,4-tetrahydroisoquinoline]
Ki [1]: 10 µM

Ki [2]: 1.4 µM | greater potency as an inhibitor of hPNMT than 13 ([3]; 14 (aminomethyl) versus 13 (aminocarbonyl)): over 20 fold
Molecule: NCC1Cc2ccccc2CN1 (centres unmarked) [Compound 14]

Molecule: NC(=O)C1Cc2ccccc2CN1 (centres unmarked) [Compound 13]
Ki [4]: 31 µM

Molecule: tris(hydroxymethyl)amino methane
inhibition in PNMT assays ([3]; buffer component, prompted a switch to phosphate buffer): inhibition being observed
